Experiment [1] concerns persian speedwell. In words: Test Example 5: herbicidal effect by foliage application, plastic box (Table 20, symbol R). The conditions noted are these: foliage application, AAH 320 g/ha, evaluated three weeks after application. The experiment is classed as in vivo, Persian speedwell (Veronica persica). An outline of the steps:
(§1)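 Foliar spray test: emulsion formulation diluted in water to a set application rate, sprayed onto 14-day-old plants raised in diluvial soil at 25° C to 30° C under glass. Both herbicidal effect and crop effect rated visually three weeks later.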

The subject of experiment [2] is windgrass. In words: Test Example 4: herbicidal effect by soil treatment (Table 19, symbol L). The format is in vivo, windgrass (Apera spica-venti). The conditions noted are these: amount of applied herbicide 320 g/ha. Summed up: (§2)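 Herbicidal effect was rated 3 weeks after treatment, using the scoring criteria of an earlier test. The compound, formulated as an emulsion and diluted in water to a set herbicide amount, had been sprayed uniformly on soil over freshly sown seeds. Growth took place in a greenhouse at 25° C. to 30° C.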

The test system of experiment [3] is Italian ryegrass. Description: Test Example 4: herbicidal effect by soil treatment (Table 19, symbol K). The experiment is classed as in vivo, Italian ryegrass (Lolium multiflorum). An outline of the steps:
as §2

The test system of experiment [4] is windgrass. In words: Test Example 5: herbicidal effect by foliage application, plastic box (Table 20, symbol L). The format is in vivo, windgrass (Apera spica-venti). The following applies: foliage application, AAH 320 g/ha, evaluated three weeks after application. An outline of the steps:
as §1

Experiment [5] deals with lambsquarters. In words: Test Example 4: herbicidal effect by soil treatment (Table 19, symbol O). The format is in vivo, lambsquarters (Chenopodium album). Summed up: as §2
Experiment [6] has as its system barnyard grass. Description: Test Example 5: herbicidal effect by foliage application, plastic box (Table 20, symbol H). The experiment is classed as in vivo, barnyard grass (Echinochloa crus-galli). The conditions noted are these: foliage application, AAH 320 g/ha, evaluated three weeks after application. An outline of the steps: as §1
For experiment [7], the system named is blackgrass. In words: Test Example 4: herbicidal effect by soil treatment (Table 19, symbol J). The format is in vivo, blackgrass (Alopecurus myosuroides). An outline of the steps:
as §2

Experiment [8] concerns chickweed. Description: Test Example 4: herbicidal effect by soil treatment (Table 19, symbol P). The experiment is classed as in vivo, common chickweed (Stellaria media). Summed up: as §2
Experiment [9] deals with Chinese sprangletop. In words: Test Example 3: herbicidal effect by foliage application, Wagner pot (Table 18, symbol D). The format is in vivo, chinese sprangletop (Leptochloa chinensis). Summed up:
(§3)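 Plants were sown in alluvial soil held under 0.1–0.5 cm standing water and grown 14 days in a greenhouse at 25–30 °C. An emulsifiable formulation, water-diluted to the set dose, was then sprayed onto the foliage, and effects were scored three weeks later using previously defined criteria.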

The subject of experiment [10] is velvetleaf. In words: Test Example 4: herbicidal effect by soil treatment (Table 19, symbol M). The experiment is classed as in vivo, velvetleaf (Abutilon theophrasti). Summed up:
as §2

Experiment [11] deals with southern crabgrass. Description: Test Example 5: herbicidal effect by foliage application, plastic box (Table 20, symbol F). The format is in vivo, southern crabgrass (Digitaria ciliaris). The following applies: foliage application, AAH 320 g/ha, evaluated three weeks after application. Summed up:
as §1

In experiment [12] the test system is wild oat. Description: Test Example 5: herbicidal effect by foliage application, plastic box (Table 20, symbol I). The experiment is classed as in vivo, wild oat (Avena fatua). The conditions noted are these: foliage application, AAH 320 g/ha, evaluated three weeks after application. Summed up: as §1
Experiment [13] deals with redroot pigweed. In words: Test Example 4: herbicidal effect by soil treatment (Table 19, symbol N). The experiment is classed as in vivo, redroot pigweed (Amaranthus retroflexus). Summed up: as §2
Experiment [14] deals with barnyard grass. In words: Test Example 4: herbicidal effect by soil treatment (Table 19, symbol H). The format is in vivo, barnyard grass (Echinochloa crus-galli). Summed up:
as §2

The subject of experiment [15] is southern crabgrass. Description: Test Example 4: herbicidal effect by soil treatment (Table 19, symbol F). The experiment is classed as in vivo, southern crabgrass (Digitaria ciliaris). Summed up: as §2
Experiment [16] deals with blackgrass. Description: Test Example 5: herbicidal effect by foliage application, plastic box (Table 20, symbol J). The experiment is classed as in vivo, blackgrass (Alopecurus myosuroides). The conditions noted are these: foliage application, AAH 320 g/ha, evaluated three weeks after application. An outline of the steps: as §1
Experiment [17] has as its system green foxtail. In words: Test Example 5: herbicidal effect by foliage application, plastic box (Table 20, symbol G). The format is in vivo, green foxtail (Setaria viridis). The following applies: foliage application, AAH 320 g/ha, evaluated three weeks after application. An outline of the steps:
as §1

The test system of experiment [18] is lambsquarters. Description: Test Example 5: herbicidal effect by foliage application, plastic box (Table 20, symbol O). The experiment is classed as in vivo, lambsquarters (Chenopodium album). The conditions noted are these: foliage application, AAH 320 g/ha, evaluated three weeks after application. An outline of the steps: as §1
Experiment [19] relates to redroot pigweed. Description: Test Example 5: herbicidal effect by foliage application, plastic box (Table 20, symbol N). The format is in vivo, redroot pigweed (Amaranthus retroflexus). The conditions noted are these: foliage application, AAH 320 g/ha, evaluated three weeks after application. Summed up:
as §1

The subject of experiment [20] is rice flat sedge. Description: Test Example 3: herbicidal effect by foliage application, Wagner pot (Table 18, symbol E). The experiment is classed as in vivo, rice flat sedge (Cyperus iria). Summed up: as §3
The subject of experiment [21] is chickweed. In words: Test Example 5: herbicidal effect by foliage application, plastic box (Table 20, symbol P). The format is in vivo, common chickweed (Stellaria media). The following applies: foliage application, AAH 320 g/ha, evaluated three weeks after application. Summed up:
as §1

The test system of experiment [22] is barnyard grass. In words: Test Example 3: herbicidal effect by foliage application, Wagner pot (Table 18, symbol H). The experiment is classed as in vivo, barnyard grass (Echinochloa crus-galli). An outline of the steps: as §3
For experiment [23], the system named is Italian ryegrass. Description: Test Example 5: herbicidal effect by foliage application, plastic box (Table 20, symbol K). The format is in vivo, Italian ryegrass (Lolium multiflorum). The following applies: foliage application, AAH 320 g/ha, evaluated three weeks after application. An outline of the steps: as §1
Experiment [24] has as its system velvetleaf. Description: Test Example 5: herbicidal effect by foliage application, plastic box (Table 20, symbol M). The experiment is classed as in vivo, velvetleaf (Abutilon theophrasti). The conditions noted are these: foliage application, AAH 320 g/ha, evaluated three weeks after application. An outline of the steps: as §1
For experiment [25], the system named is wild oat. In words: Test Example 4: herbicidal effect by soil treatment (Table 19, symbol I). The experiment is classed as in vivo, wild oat (Avena fatua). Summed up: as §2
In experiment [26] the test system is green foxtail. In words: Test Example 4: herbicidal effect by soil treatment (Table 19, symbol G). The format is in vivo, green foxtail (Setaria viridis). An outline of the steps:
as §2

In experiment [27] the test system is persian speedwell. Description: Test Example 4: herbicidal effect by soil treatment (Table 19, symbol R). The experiment is classed as in vivo, Persian speedwell (Veronica persica). The following applies: amount of applied herbicide 280 g/ha. The text has this: [Test Example 4] Herbicidal Effect Test by Soil Treatment
Sterilized diluvial soil was placed in a plastic box having a length of 21 cm, a width of 13 cm, and a depth of 7 cm. The seeds of each of southern crabgrass, green foxtail, barnyard grass, wild oat, blackgrass, Italian ryegrass, windgrass, velvetleaf, redroot pigweed, lambsquarters, chickweed, false cleavers, persian speedwell, corn, soybean, rice, wheat, beet, and rapeseed were sowed in a spot-like manner and covered with the soil having a thickness of about 1.5 cm. Subsequently, the emulsion agent of the compound of the present invention prepared according to Formulation Example 2 was diluted with water so as to achieve a predetermined herbicide amount, and the diluted emulsion agent was uniformly applied to the surface of the soil with a small-sized spray. The plastic box was placed in a greenhouse at 25° C. to 30° C. for growth of the plants. Three weeks after the herbicide application, the effect of the herbicide on each plant was evaluated according to the criteria of Test Example 1.

The mark [28] stands for this setting: amount of applied herbicide 320 g/ha.
Where [29] appears, read: amount of applied herbicide 280 g/ha.

For the compound `COCCSc1ccc(-c2sc3ccc(F)cc3c2-c2c(O)c(C)nn(C)c2=O)cc1` [2-265], the “R: persian speedwell, herbicidal effect (criteria 0-5)” value in experiment [1] was 5 (Herbicidal rate of 90% or more (almost completely withered)). Also, the “herbicidal effect on L: windgrass” value in experiment [2] is 0 (Herbicidal rate of 5% or less (almost no effect)). Further, the “herbicidal effect on K: Italian ryegrass” value in experiment [3] (setting [28]) was 0 (Herbicidal rate of 5% or less (almost no effect)). The “L: windgrass, herbicidal effect (criteria 0-5)” value in experiment [4] is listed as 0 (Herbicidal rate of 5% or less (almost no effect)). Moreover, in experiment [5] (setting [28]), the “herbicidal effect on O: lambsquarters” value is 4 (Herbicidal rate of 70% or more and less than 90%). The “H: barnyard grass, herbicidal effect (criteria 0-5)” value in experiment [6] is 4 (Herbicidal rate of 70% or more and less than 90%). For the same compound, the “herbicidal effect on J: blackgrass” value in experiment [7] (setting [28]) was 0 (Herbicidal rate of 5% or less (almost no effect)). The “herbicidal effect on P: chickweed” value in experiment [8] (setting [28]) is 0 (Herbicidal rate of 5% or less (almost no effect)). In addition, the “herbicidal effect on D: Chinese sprangletop” value in experiment [9] (setting [28]) is 4 (Herbicidal rate of 70% or more and less than 90%). For the same compound, in experiment [10] (setting [28]), the “herbicidal effect on M: velvetleaf” value is 3 (Herbicidal rate of 40% or more and less than 70%). In addition, the “F: southern crabgrass, herbicidal effect (criteria 0-5)” value in [11] was 4 (Herbicidal rate of 70% or more and less than 90%). For the same compound, the “I: wild oat, herbicidal effect (criteria 0-5)” value in experiment [12] is 3 (Herbicidal rate of 40% or more and less than 70%). For the same compound, in experiment [13] (setting [28]), the “herbicidal effect on N: redroot pigweed” value is 5 (Herbicidal rate of 90% or more (almost completely withered)). The “herbicidal effect on H: barnyard grass” value in experiment [14] (setting [28]) is 2 (Herbicidal rate of 20% or more and less than 40%); in [22] (setting [28]), 5 (Herbicidal rate of 90% or more (almost completely withered)). Also, the “herbicidal effect on F: southern crabgrass” value in [15] (setting [28]) was 3 (Herbicidal rate of 40% or more and less than 70%). Moreover, in experiment [16], the “J: blackgrass, herbicidal effect (criteria 0-5)” value was 0 (Herbicidal rate of 5% or less (almost no effect)). Further, the “G: green foxtail, herbicidal effect (criteria 0-5)” value in experiment [17] was 5 (Herbicidal rate of 90% or more (almost completely withered)). Moreover, the “O: lambsquarters, herbicidal effect (criteria 0-5)” value in experiment [18] is 4 (Herbicidal rate of 70% or more and less than 90%). In [19], the “N: redroot pigweed, herbicidal effect (criteria 0-5)” value is 5 (Herbicidal rate of 90% or more (almost completely withered)). Besides, the “herbicidal effect on E: rice flat sedge” value in [20] (setting [28]) was 5 (Herbicidal rate of 90% or more (almost completely withered)). The “P: chickweed, herbicidal effect (criteria 0-5)” value in experiment [21] is recorded as 5 (Herbicidal rate of 90% or more (almost completely withered)). Further, the “K: Italian ryegrass, herbicidal effect (criteria 0-5)” value in [23] is 2 (Herbicidal rate of 20% or more and less than 40%). Besides, the “M: velvetleaf, herbicidal effect (criteria 0-5)” value in experiment [24] is on record as 5 (Herbicidal rate of 90% or more (almost completely withered)). Further, in experiment [25] (setting [28]), the “herbicidal effect on I: wild oat” value was 0 (Herbicidal rate of 5% or less (almost no effect)). Also, in experiment [26] (setting [28]), the “herbicidal effect on G: green foxtail” value was 4 (Herbicidal rate of 70% or more and less than 90%).
As for `COc1cccc(-c2sc3ccc(F)cc3c2-c2c(O)c(C)nn(C)c2=O)n1` [2-382], the “herbicidal effect, K: Italian ryegrass” value in experiment [3] (setting [29]) is 1 (Herbicidal rate of 5% or more and less than 20%). The “herbicidal effect, O: lambsquarters” value in [5] (setting [29]) is 4 (Herbicidal rate of 70% or more and less than 90%). The “herbicidal effect, J: blackgrass” value in experiment [7] (setting [29]) was 0 (Herbicidal rate of 5% or less (almost no effect)). The “herbicidal effect, P: chickweed” value in experiment [8] (setting [29]) is 4 (Herbicidal rate of 70% or more and less than 90%). Moreover, in experiment [9] (setting [29]), the “herbicidal effect on D: Chinese sprangletop” value is reported as 0 (Herbicidal rate of 5% or less (almost no effect)). Besides, the “herbicidal effect, M: velvetleaf” value in experiment [10] (setting [29]) is 1 (Herbicidal rate of 5% or more and less than 20%). For the same compound, in experiment [27], the “herbicidal effect, R: persian speedwell” value was 4 (Herbicidal rate of 70% or more and less than 90%). Further, the “herbicidal effect, N: redroot pigweed” value in experiment [13] (setting [29]) is 4 (Herbicidal rate of 70% or more and less than 90%). The “herbicidal effect, H: barnyard grass” value in experiment [14] (setting [29]) is 1 (Herbicidal rate of 5% or more and less than 20%). Also, in experiment [15] (setting [29]), the “herbicidal effect, F: southern crabgrass” value is listed as 0 (Herbicidal rate of 5% or less (almost no effect)). In [20] (setting [29]), the “herbicidal effect on E: rice flat sedge” value is 3 (Herbicidal rate of 40% or more and less than 70%). In addition, the “herbicidal effect on H: barnyard grass” value in [22] (setting [29]) was 0 (Herbicidal rate of 5% or less (almost no effect)). For the same compound, in experiment [25] (setting [29]), the “herbicidal effect, I: wild oat” value is on record as 0 (Herbicidal rate of 5% or less (almost no effect)). Also, the “herbicidal effect, G: green foxtail” value in experiment [26] (setting [29]) was 0 (Herbicidal rate of 5% or less (almost no effect)).

The values are drawn from patent publication US20230085307A1, “PYRIDAZINONE COMPOUND AND HERBICIDE” (NISSAN CHEMICAL CORPORATION, priority 2019, published 2023).
